Measurements taken from article PMC11167047 (Cell Death Discovery, 2024).

Assays:
Test in all cases: kinome screen (33PanQinase)
Format in all cases: biochemical
CK1Δ = biological target: T1, CK1Δ (Homo sapiens, UniProt P48730)
T1 construct: purchased Reaction Biology Europe GmbH (formerly ProQinase)
Protocol: (§1) The Kinome Screening was performed by Reaction Biology Europe GmbH (http://reactionbiology.com; Freiburg i. Br., Germany).

CK1γ3 = biological target: T2, CK1γ3 (Homo sapiens, UniProt Q9Y6M4)
T2 construct: purchased Reaction Biology Europe GmbH (formerly ProQinase)
Protocol: as §1

EPHB2 = biological target: T3, EPHB2 (Homo sapiens, UniProt P29323)
T3 construct: purchased Reaction Biology Europe GmbH (formerly ProQinase)
T3 sequence (P29323 19-1055): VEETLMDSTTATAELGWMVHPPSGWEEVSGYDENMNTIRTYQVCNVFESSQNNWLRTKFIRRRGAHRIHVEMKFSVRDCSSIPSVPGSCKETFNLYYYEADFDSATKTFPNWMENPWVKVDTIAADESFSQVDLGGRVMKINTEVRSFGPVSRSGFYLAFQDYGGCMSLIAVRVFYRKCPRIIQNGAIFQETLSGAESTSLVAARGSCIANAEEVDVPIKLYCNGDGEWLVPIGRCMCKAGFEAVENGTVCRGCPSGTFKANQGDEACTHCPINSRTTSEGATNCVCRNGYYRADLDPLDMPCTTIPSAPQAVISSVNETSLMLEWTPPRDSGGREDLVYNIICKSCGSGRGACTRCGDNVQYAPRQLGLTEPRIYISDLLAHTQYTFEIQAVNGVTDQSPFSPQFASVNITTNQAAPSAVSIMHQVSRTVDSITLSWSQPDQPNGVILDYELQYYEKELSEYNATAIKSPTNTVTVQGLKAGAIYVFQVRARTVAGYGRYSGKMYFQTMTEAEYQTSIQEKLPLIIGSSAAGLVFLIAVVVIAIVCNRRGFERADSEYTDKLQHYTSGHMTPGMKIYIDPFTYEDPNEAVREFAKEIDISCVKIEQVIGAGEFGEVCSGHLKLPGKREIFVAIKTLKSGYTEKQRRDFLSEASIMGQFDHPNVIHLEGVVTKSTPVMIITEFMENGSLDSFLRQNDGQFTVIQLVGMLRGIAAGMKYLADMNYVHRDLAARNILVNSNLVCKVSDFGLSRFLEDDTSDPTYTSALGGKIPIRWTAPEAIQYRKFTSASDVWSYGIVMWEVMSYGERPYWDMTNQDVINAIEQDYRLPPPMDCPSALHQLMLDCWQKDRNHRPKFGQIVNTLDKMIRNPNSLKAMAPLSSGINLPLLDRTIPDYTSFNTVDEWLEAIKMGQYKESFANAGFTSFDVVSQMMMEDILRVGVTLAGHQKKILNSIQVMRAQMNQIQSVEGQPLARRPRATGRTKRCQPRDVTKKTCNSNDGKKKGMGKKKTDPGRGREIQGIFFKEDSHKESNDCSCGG
Protocol: as §1

NLK = biological target: T4, NLK (Homo sapiens, UniProt Q9UBE8)
T4 construct: purchased Reaction Biology Europe GmbH (formerly ProQinase)
T4 sequence (Q9UBE8 1-527): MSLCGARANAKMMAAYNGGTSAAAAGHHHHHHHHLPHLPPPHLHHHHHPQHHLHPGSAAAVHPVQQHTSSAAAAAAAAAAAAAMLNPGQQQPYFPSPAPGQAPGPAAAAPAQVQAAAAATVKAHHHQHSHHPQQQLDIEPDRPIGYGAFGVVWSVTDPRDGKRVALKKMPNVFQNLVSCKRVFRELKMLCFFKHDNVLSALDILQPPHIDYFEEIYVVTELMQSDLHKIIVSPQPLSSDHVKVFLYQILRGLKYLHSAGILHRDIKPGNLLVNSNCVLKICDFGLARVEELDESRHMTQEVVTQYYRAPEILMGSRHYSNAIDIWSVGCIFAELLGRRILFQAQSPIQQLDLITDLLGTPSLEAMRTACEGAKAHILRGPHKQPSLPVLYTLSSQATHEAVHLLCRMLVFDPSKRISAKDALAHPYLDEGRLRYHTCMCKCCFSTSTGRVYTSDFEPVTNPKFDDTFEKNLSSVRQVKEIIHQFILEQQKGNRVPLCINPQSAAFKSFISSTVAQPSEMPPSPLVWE
Protocol: as §1

PBK = biological target: T5, PBK (Homo sapiens, UniProt Q96KB5)
T5 construct: purchased Reaction Biology Europe GmbH (formerly ProQinase)
T5 sequence (Q96KB5 1-322): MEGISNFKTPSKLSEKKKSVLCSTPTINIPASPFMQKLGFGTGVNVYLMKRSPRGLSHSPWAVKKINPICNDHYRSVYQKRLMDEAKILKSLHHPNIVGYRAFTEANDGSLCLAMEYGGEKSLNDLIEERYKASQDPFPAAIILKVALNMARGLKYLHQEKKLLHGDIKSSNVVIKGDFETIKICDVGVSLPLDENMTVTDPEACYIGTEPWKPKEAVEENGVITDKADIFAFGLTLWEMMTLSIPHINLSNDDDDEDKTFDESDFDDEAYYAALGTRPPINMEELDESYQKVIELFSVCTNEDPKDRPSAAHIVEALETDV
Protocol: as §1

PRK1 = biological target: T6, PRK1 (Homo sapiens, UniProt Q16512)
T6 construct: purchased Reaction Biology Europe GmbH (formerly ProQinase)
Protocol: as §1

PYK2 = biological target: T7, PYK2 (Homo sapiens, UniProt Q14289)
T7 construct: purchased Reaction Biology Europe GmbH (formerly ProQinase)
Protocol: as §1

SIK3 = biological target: T8, SIK3 (Homo sapiens, UniProt Q9Y2K2)
T8 construct: purchased Reaction Biology Europe GmbH (formerly ProQinase)
Protocol: as §1

TTBK2 = biological target: T9, TTBK2 (Homo sapiens, UniProt Q6IQ55)
T9 construct: purchased Reaction Biology Europe GmbH (formerly ProQinase)
Protocol: as §1

TYK2 = biological target: T10, TYK2 (Homo sapiens, UniProt P29597)
T10 construct: purchased Reaction Biology Europe GmbH (formerly ProQinase)
Protocol: as §1

T9 sequence (Q6IQ55 whole entry): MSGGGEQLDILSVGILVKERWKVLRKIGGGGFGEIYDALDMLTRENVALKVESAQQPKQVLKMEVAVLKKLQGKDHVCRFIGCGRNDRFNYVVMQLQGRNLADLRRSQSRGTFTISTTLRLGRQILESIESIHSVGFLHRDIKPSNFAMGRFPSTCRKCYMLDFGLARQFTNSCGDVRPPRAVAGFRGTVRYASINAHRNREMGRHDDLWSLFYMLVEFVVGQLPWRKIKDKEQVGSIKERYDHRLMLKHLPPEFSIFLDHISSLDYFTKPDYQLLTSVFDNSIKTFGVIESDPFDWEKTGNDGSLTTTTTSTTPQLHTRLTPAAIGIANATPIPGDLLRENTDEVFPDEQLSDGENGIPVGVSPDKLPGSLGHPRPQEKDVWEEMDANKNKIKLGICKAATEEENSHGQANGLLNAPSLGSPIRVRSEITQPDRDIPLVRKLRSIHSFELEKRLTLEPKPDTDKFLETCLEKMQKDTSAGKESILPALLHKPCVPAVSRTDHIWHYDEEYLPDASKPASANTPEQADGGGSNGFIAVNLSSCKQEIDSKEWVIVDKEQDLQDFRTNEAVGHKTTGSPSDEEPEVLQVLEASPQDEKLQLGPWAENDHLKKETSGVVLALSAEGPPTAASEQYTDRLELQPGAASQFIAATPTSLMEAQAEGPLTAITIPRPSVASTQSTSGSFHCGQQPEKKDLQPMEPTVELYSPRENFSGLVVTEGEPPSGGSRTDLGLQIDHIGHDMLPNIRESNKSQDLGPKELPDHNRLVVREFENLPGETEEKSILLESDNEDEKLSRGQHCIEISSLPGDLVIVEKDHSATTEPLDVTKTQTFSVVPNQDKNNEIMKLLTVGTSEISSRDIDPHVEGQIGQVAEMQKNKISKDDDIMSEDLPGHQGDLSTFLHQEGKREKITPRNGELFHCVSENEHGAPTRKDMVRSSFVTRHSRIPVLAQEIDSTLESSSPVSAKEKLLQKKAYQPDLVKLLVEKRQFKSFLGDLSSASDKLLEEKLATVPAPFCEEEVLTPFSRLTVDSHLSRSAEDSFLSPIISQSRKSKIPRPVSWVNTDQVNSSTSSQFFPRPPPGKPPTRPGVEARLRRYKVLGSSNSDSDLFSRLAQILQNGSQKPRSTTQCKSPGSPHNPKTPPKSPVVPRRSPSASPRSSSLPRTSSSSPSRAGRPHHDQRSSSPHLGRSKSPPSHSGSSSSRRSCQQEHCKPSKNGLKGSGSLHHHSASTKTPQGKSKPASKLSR
T2 sequence (Q9Y6M4 whole entry): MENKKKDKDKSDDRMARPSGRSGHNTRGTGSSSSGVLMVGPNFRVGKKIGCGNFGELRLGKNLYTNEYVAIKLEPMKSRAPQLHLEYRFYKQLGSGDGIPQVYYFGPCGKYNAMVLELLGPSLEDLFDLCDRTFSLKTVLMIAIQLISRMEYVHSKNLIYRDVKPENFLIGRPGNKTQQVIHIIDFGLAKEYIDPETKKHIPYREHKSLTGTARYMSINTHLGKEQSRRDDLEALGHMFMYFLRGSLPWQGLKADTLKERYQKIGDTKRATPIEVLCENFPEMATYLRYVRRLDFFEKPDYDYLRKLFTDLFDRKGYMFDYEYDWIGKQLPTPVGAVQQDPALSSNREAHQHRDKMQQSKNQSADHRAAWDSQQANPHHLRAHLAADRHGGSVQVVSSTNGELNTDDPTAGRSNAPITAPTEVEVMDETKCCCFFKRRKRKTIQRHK
T8 sequence (Q9Y2K2 whole entry): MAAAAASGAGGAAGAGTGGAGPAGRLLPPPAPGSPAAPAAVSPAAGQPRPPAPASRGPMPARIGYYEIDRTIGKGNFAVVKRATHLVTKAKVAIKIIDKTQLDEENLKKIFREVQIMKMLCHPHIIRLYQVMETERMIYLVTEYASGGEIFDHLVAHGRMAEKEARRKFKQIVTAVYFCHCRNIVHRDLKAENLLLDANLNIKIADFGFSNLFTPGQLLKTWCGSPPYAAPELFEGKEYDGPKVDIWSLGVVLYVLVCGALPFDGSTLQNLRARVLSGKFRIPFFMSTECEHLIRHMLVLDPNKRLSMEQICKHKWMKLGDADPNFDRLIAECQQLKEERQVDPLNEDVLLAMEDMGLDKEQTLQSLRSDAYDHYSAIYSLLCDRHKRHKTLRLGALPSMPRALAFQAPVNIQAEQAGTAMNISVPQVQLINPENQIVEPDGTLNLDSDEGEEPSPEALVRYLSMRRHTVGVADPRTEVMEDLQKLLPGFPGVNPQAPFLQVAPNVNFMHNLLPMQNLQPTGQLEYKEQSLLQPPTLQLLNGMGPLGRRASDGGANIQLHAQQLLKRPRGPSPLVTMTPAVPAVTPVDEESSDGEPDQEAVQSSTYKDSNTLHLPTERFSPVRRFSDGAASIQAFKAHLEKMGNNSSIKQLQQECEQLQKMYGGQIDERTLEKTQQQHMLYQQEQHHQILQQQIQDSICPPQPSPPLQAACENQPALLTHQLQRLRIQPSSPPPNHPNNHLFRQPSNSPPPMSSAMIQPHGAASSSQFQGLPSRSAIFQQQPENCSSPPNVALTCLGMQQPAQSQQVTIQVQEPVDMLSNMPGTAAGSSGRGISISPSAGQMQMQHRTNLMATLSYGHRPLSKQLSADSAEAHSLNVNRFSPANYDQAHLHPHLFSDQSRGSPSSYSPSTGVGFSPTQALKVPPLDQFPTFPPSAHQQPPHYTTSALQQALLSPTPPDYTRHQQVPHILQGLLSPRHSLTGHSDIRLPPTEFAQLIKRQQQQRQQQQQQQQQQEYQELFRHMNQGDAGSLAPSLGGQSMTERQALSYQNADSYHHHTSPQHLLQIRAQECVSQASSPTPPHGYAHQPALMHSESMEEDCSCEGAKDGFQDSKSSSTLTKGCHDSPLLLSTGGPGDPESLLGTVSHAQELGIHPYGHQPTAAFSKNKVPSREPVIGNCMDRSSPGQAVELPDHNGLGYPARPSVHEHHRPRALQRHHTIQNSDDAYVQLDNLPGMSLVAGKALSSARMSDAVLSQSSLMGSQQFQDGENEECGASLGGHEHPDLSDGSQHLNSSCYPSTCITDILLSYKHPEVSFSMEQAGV
T7 sequence (Q14289 whole entry): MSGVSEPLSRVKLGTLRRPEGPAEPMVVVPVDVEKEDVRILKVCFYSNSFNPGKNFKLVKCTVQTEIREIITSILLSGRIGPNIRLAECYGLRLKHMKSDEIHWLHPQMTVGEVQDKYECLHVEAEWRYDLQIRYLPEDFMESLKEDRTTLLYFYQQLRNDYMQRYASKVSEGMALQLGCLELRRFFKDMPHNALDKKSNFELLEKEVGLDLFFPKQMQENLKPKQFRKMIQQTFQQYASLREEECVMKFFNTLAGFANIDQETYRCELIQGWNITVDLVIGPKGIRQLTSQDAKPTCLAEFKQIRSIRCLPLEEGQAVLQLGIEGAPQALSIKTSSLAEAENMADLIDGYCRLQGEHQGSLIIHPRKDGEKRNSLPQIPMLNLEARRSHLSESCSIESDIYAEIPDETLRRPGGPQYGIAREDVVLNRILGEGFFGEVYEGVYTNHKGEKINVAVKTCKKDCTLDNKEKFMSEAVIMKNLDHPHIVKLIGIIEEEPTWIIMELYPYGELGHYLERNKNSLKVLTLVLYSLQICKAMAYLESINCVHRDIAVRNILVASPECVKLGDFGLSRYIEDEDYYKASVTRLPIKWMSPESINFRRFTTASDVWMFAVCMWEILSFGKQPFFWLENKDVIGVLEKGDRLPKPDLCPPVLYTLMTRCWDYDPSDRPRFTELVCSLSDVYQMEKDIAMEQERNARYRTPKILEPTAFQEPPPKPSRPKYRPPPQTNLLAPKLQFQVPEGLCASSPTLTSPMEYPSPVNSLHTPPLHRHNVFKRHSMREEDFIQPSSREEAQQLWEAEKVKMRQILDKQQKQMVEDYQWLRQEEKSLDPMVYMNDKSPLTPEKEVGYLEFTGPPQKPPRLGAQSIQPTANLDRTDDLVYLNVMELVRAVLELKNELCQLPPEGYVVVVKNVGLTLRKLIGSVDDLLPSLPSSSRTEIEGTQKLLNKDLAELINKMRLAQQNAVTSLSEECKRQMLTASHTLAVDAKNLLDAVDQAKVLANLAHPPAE
T1 sequence (P48730 whole entry, stated change not applied): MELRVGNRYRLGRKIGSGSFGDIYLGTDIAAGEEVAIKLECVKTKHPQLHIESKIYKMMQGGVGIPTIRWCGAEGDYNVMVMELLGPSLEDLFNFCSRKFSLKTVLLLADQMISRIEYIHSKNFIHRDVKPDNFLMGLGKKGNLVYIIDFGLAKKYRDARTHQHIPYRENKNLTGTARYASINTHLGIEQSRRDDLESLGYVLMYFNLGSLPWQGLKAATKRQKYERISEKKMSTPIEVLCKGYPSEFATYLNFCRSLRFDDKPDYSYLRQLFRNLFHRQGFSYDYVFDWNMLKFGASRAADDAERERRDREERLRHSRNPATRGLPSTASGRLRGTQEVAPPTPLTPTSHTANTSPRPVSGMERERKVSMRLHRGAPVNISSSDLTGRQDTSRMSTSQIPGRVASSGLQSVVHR

Row | SMILES | residual kinase activity (CK1Δ; 0.3 µM) | residual kinase activity (CK1γ3; 0.3 µM) | residual kinase activity (EPHB2; 0.3 µM) | residual kinase activity (NLK; 0.3 µM) | residual kinase activity (PBK; 0.3 µM) | residual kinase activity (PRK1; 0.3 µM) | residual kinase activity (PYK2; 0.3 µM) | residual kinase activity (SIK3; 0.3 µM) | residual kinase activity (TTBK2; 0.3 µM) | residual kinase activity (TYK2; 0.3 µM) | also measured
1 | c1ccc(CNc2cc(-c3c[nH]c4ncccc34)ccn2)cc1 [meriolin 36] | 43 % of control | 49 % of control | 85 % of control | 78 % of control | 69 % of control | 17 % of control | 73 % of control | 72 % of control | 93 % of control | 6 % of control | residual kinase activity (CK1Δ; 3 µM): 9 % of control; residual kinase activity (CK1γ3; 3 µM): 9 % of control; residual kinase activity (EPHB2; 3 µM): 47 % of control; residual kinase activity (NLK; 3 µM): 29 % of control; residual kinase activity (PBK; 3 µM): 80 % of control; residual kinase activity (PRK1; 3 µM): 3 % of control; residual kinase activity (PYK2; 3 µM): 24 % of control; residual kinase activity (SIK3; 3 µM): 32 % of control; residual kinase activity (TTBK2; 3 µM): 56 % of control; residual kinase activity (TYK2; 3 µM): 1 % of control
2 | COc1ccnc2[nH]cc(-c3cc(N)nc(N)c3)c12 [meriolin 16] | 17 % of control | 22 % of control | 95 % of control | 81 % of control | 90 % of control | 35 % of control | 102 % of control | 88 % of control | 91 % of control | 68 % of control | residual kinase activity (CK1Δ; 0.03 µM): 77 % of control; residual kinase activity (CK1γ3; 0.03 µM): 77 % of control; residual kinase activity (EPHB2; 0.03 µM): 97 % of control; residual kinase activity (NLK; 0.03 µM): 96 % of control; residual kinase activity (PBK; 0.03 µM): 95 % of control; residual kinase activity (PRK1; 0.03 µM): 84 % of control; residual kinase activity (PYK2; 0.03 µM): 117 % of control; residual kinase activity (SIK3; 0.03 µM): 106 % of control; residual kinase activity (TTBK2; 0.03 µM): 96 % of control; residual kinase activity (TYK2; 0.03 µM): 105 % of control
